Source: patent US6964949B2, “Pharmaceutical compositions for promoting the growth of gram-positive bacilli and increasing the acidity in the vagina and the use thereof” (Shanghai Jiao Da Onlly Co., Ltd., priority 2000, dated 2005)

Tests used:
Assay type in all cases: cell-based
Details in all cases: 1.0% yeast extract, pH 6.2, candle jar, 37° C.
[1] = test system: vaginal secretion specimen of a patient suffering from typical bacterial vaginosis; assay: Experiment Example 2: pH of culture samples (production of acids)
Text: (§1) • (1)The preparation of the compositions: Different saccharides were used respectively to prepare the following compositions according to the methods mentioned above: glucose, fructose, galactose, mannose, maltose, sucrose, lactose, lactulose, mycose, cellobiose, melibiose, melitose, malto-oligosaccharide, isomaltooligosaccharide and fructooligosaccharide, dextrin, starch, and glycogen: • A. 5% glucose, 1.0% yeast extract, 1.6% xanthan gum, pH adjusted to 6.2; • B. 5% fructose, 1.0% yeast extract, 1.6% xanthan gum, pH adjusted to 6.2; • C. 5% galactose, 1.0% yeast extract, 1.6% xanthan gum, pH adjusted to 6.2; • D. 5% mannose, 1.0% yeast extract, 1.6% xanthan gum, pH adjusted to 6.2; • E. 10.0% maltose, 1.0% yeast extract, 1.6% xanthan gum, pH adjusted to 6.2; • F. 10.0% sucrose, 1.0% yeast extract, 1.6% xanthan gum, pH adjusted to 6.2; • G. 10.0% lactose, 1.0% yeast extract, 1.6% xanthan gum, pH adjusted to 6.2; • H. 10.0% lactulose, 1.0% yeast extract, 1.6% xanthan gum, pH adjusted to 6.2; • I. 10.0% cellobiose, 1.0% yeast extract, 1.6% xanthan gum, pH adjusted to 6.2; • J. 10.0% mycose, 1.0% yeast extract, 1.6% xanthan gum, pH adjusted to 6.2; • K. 10.0% melibiose, 1.0% yeast extract, 1.6% xanthan gum, pH adjusted to 6.2; • L. 10.0% melitose, 1.0% yeast extract, 1.6% xanthan gum, pH adjusted to 6.2; • M. 10.0% maltooligosaccharide, 1.0% yeast extract, 1.6% xanthan gum, pH adjusted to 6.2; • N. 10.0% isomaltooligosaccharide, 1.0% yeast extract, 1.6% xanthan gum, pH adjusted to 6.2; • O. 10.0% fructooligosaccharide, 1.0% yeast extract, 1.6% xanthan gum, pH adjusted to 6.2; • P. 10.0% dextrin, 1.0% yeast extract, 0.5% xanthan gum, pH adjusted to 6.2; • Q. 10.0% starch, 1.0% yeast extract, pH adjusted to 6.2; • R. 10.0% glycogen, 1.0% yeast extract, 1.6% xanthan gum, pH adjusted to 6.2. • (2)The preparation of the test tubes: The compositions prepared above were filled into test tubes, with each tube containing 5 ml, sterilized, and kept until use for experiment. • (3) Specimen suspension: Vaginal secretion was taken from one of the patients suffering from typical bacterial vagmosis with a cotton swab, then the swab was washed in 2 ml sterilized Trypcase-soy Broth immediately, and thus the specimen suspension was ready. […] Then the tubes were placed in a candle jar and cultivated at 37° C. After 24 hours and 48 hours' culture, culture samples were taken respectively from each of the tubes, then the Gram smears of the samples were observed and the pH values of culture samples were tested. […] Meanwhile the pH values in most of the composition tubes decreased to different levels. […] And maltose and sucrose exert better effect in promoting the growth of Gram-positive bacilli and the production of acids than that of the other kinds of oligosaccharides.

Gram-positive cocci = assay: Experiment Example 2: comparison of saccharides, specimen culture, Gram smear
Text: as §1

Gram-positive bacilli = assay: as above
Text: as §1

Gram-negative cocci = assay: as above
Text: as §1

Gram-negative bacilli = assay: as above
Text: as §1

[2] = 10.0% saccharide, 1.6% xanthan gum (dextrin 0.5%, starch none)
[3] = 5% saccharide, 1.6% xanthan gum

| SMILES | pH, 24 hours-culture [1, 2] | pH, 48 hours-culture [1, 2] | Bacteria G + c (Gram-positive cocci), 24 hours-culture (Gram-positive cocci; [2]) | Bacteria G + c (Gram-positive cocci), 48 hours-culture (Gram-positive cocci; [2]) | Bacteria G + b (Gram-positive bacilli), 24 hours-culture (Gram-positive bacilli; [2]) | Bacteria G + b (Gram-positive bacilli), 48 hours-culture (Gram-positive bacilli; [2]) | Bacteria G − c (Gram-negative cocci), 24 hours-culture (Gram-negative cocci; [2]) | Bacteria G − c (Gram-negative cocci), 48 hours-culture (Gram-negative cocci; [2]) | Bacteria G − b (Gram-negative bacilli), 24 hours-culture (Gram-negative bacilli; [2]) | Bacteria G − b (Gram-negative bacilli), 48 hours-culture (Gram-negative bacilli; [2]) | pH, 24 hours-culture [1, 3] | pH, 48 hours-culture [1, 3] | Bacteria G + c (Gram-positive cocci), 24 hours-culture (Gram-positive cocci; [3]) | Bacteria G + c (Gram-positive cocci), 48 hours-culture (Gram-positive cocci; [3]) | Bacteria G + b (Gram-positive bacilli), 24 hours-culture (Gram-positive bacilli; [3]) | Bacteria G + b (Gram-positive bacilli), 48 hours-culture (Gram-positive bacilli; [3]) | Bacteria G − c (Gram-negative cocci), 24 hours-culture (Gram-negative cocci; [3]) | Bacteria G − c (Gram-negative cocci), 48 hours-culture (Gram-negative cocci; [3]) | Bacteria G − b (Gram-negative bacilli), 24 hours-culture (Gram-negative bacilli; [3]) | Bacteria G − b (Gram-negative bacilli), 48 hours-culture (Gram-negative bacilli; [3]) |
| --- | --- | --- | --- | --- | --- | --- | --- | --- | --- | --- | --- | --- | --- | --- | --- | --- | --- | --- | --- | --- |
| OC[C@H]1O[C@@H](O[C@@H]2[C@@H](CO)OC(O)(CO)[C@H]2O)[C@H](O)[C@@H](O)[C@H]1O (mixture of isomers) [Lactulose, lactulose] | 5.8-6.2 | 6.2 | G + c, + (1-9 bacteria per field of vision under oil-immersion lens) | G + c, + (1-9 bacteria per field of vision under oil-immersion lens) | G + b, +++ (About 100 bacteria or more per field vision under oil-immersion lens, even uncountable) | G + b, ++ (About 10-99 bacteria per field of vision under oil-immersion lens) | G − c, − (No or less than one bacterium per field of version under oil-immersion lens) | G − c, − (No or less than one bacterium per field of version under oil-immersion lens) | G − b, + (1-9 bacteria per field of vision under oil-immersion lens) | G − b, + (1-9 bacteria per field of vision under oil-immersion lens) |  |  |  |  |  |  |  |  |  |  |
| O=C[C@H](O)[C@@H](O)[C@H](O[C@@H]1O[C@H](CO)[C@@H](O)[C@H](O)[C@H]1O)[C@H](O)CO [Cellobiose, cellobiose] | 5.8 | 5.8 | G + c, + (1-9 bacteria per field of vision under oil-immersion lens) | G + c, + (1-9 bacteria per field of vision under oil-immersion lens) | G + b, ++ (About 10-99 bacteria per field of vision under oil-immersion lens) | G + b, ++ (About 10-99 bacteria per field of vision under oil-immersion lens) | G − c, − (No or less than one bacterium per field of version under oil-immersion lens) | G − c, − (No or less than one bacterium per field of version under oil-immersion lens) | G − b, + (1-9 bacteria per field of vision under oil-immersion lens) | G − b, + (1-9 bacteria per field of vision under oil-immersion lens) |  |  |  |  |  |  |  |  |  |  |
| O=C[C@H](O)[C@@H](O)[C@@H](O)[C@H](O)CO [Galactose, galactose] |  |  |  |  |  |  |  |  |  |  | 6.7 | 6.7 | G + c, ++ (About 10-99 bacteria per field of vision under oil-immersion lens) | G + c, ++ (About 10-99 bacteria per field of vision under oil-immersion lens) | G + b, ++ (About 10-99 bacteria per field of vision under oil-immersion lens) | G + b, + (1-9 bacteria per field of vision under oil-immersion lens) | G − c, − (No or less than one bacterium per field of version under oil-immersion lens) | G − c, − (No or less than one bacterium per field of version under oil-immersion lens) | G − b, − (No or less than one bacterium per field of version under oil-immersion lens) | G − b, + (1-9 bacteria per field of vision under oil-immersion lens) |
| O=C(CO)[C@@H](O)[C@H](O)[C@H](O)CO [Fructose, fructose] |  |  |  |  |  |  |  |  |  |  | 5.4-5.8 | 5.4-5.8 | G + c, + (1-9 bacteria per field of vision under oil-immersion lens) | G + c, + (1-9 bacteria per field of vision under oil-immersion lens) | G + b, ++ (About 10-99 bacteria per field of vision under oil-immersion lens) | G + b, +++ (About 100 bacteria or more per field vision under oil-immersion lens, even uncountable) | G − c, − (No or less than one bacterium per field of version under oil-immersion lens) | G − c, − (No or less than one bacterium per field of version under oil-immersion lens) | G − b, + (1-9 bacteria per field of vision under oil-immersion lens) | G − b, + (1-9 bacteria per field of vision under oil-immersion lens) |
